Test results published in publication PMC9694494, “Resveratrol/Hydrazone Hybrids: Synthesis and Chemopreventive Activity against Colorectal Cancer Cells” (Pharmaceutics, 2022).
Where two headings read alike, the source gives them in different places.

Columns and labels:
SW480 cells [1] = experiment: SRB cell viability (cytotoxicity), SW480; type: cell-based, human; conditions: for Selectivity Index SI1: CHO-K1/SW480 IC50 ratio; for Selectivity Index SI2: HaCaT/SW480 IC50 ratio; for IC50: Homo sapiens, SW480, SRB, read-out: IC50 ± SEM SW480; for selectivity (SI): SW480 versus the nonmalignant cell lines, 48 h after treatment
Protocol: (§1) Human colon cancer cell lines (SW480 and SW620), together with nonmalignant cells (CHO-K1 and HaCaT) were used to study the biological activity. Cells were purchased from the European Collection of Authenticated Cell Cultures (ECACC, UK). Dulbecco’s Modified Eagle Medium (DMEM) containing heat-inactivated (56 °C) horse serum (10%), non-essential amino acids (1%) and antibiotics (penicillin/streptomycin, 1%) (Gibco Invitrogen, Carlsbad, CA, USA) was used to maintain the cells, reducing the horse serum to 3%, and, adding insulin ([…]), transferrin ([…]) and selenium (5 ng/mL) (ITS-defined medium; Gibco, Invitrogen, Carlsbad, CA, USA) for all the experiments.
(§2) The colorimetric test with Sulforhodamine B (SRB) was used to evaluate cell viability. Cell density was adjusted to seed 20.000 cells/well in 96-well tissue culture plates. Cells were first incubated for 24 h and then treated with the synthesized hybrids, the lead compounds (PIH and resveratrol), and the reference drug (5-FU) (concentrations between 0.01 and 200 µM), using DMSO (below 1%) as vehicle control. The optimum conditions were 37 °C and 5% CO2. After the end of each treatment, cold trichloroacetic acid (MERCK, 50% v/v) was added and preserved for one hour at 4 °C, to fix the cells. Then, cell proteins were stained with 0.4% (w/v) SRB (Sigma-Aldrich, St. Louis, MO, USA), and subsequently washed with acetic acid (1%) to remove unbound SRB. After air-drying, protein-bound SRB was solubilized in 10 mM Tris-base before reading the absorbance at 492 nm in a microplate reader (Mindray MR-96A). All experiments were performed at least three times.

SW620 cells [2] = experiment: SRB cell viability (cytotoxicity), SW620; type: cell-based, human; conditions: for Selectivity Index SI3: CHO-K1/SW620 IC50 ratio; for Selectivity Index SI4: HaCaT/SW620 IC50 ratio; for IC50: Homo sapiens, SW-620, SRB, read-out: IC50 ± SEM SW620
Protocol: as §1, §2

HaCaT cells = experiment: SRB cell viability (cytotoxicity), HaCaT; type: cell-based; conditions: Homo sapiens, HaCaT nonmalignant cells, read-out: IC50 ± SEM HACAT
Protocol: as §1, §2

SW480 cells [3] = experiment: Antiproliferative activity (SRB, 2-8 days), SW480; type: cell-based; conditions: Homo sapiens, read-out: Viability (%) ± SE; for viability at 3 µM: SW480, 3 µM; for viability at 6 µM: SW480, 6 µM; for viability at 12 µM: SW480, 12 µM; for viability at 24 µM: SW480, 24 µM; for viability at 48 µM: SW480, 48 µM
Protocol: The procedure for evaluating the antiproliferative activity was carried out using the same colorimetric test (SRB) described for cell viability, with minor modifications. Briefly, 2500 cells/well were seeded in 96-well tissue culture plates and incubated as in the previously described conditions for 0, 2, 4, 6, and 8 days. […] The culture medium was changed every 48 h. After each incubation time, cells were fixed, stained, and read as previously described for this technique.

SW480 cells [4] = experiment: Mitochondrial membrane potential (DiOC6/PI flow cytometry), SW480; type: cell-based, human; conditions: for Q1: PI-positive cells with membrane damage / Q2: PI-positive cells with membrane damage / Q3: DiOC6 high, live cells with high membrane polarization / Q4: DiOC6 low, cells in latency that lose membrane polarization: SW480, treated at IC50 value, DiOC6/PI
Protocol: (§3) To evaluate changes in mitochondrial membrane permeability, the fluorescent dyes DiOC6 (3,3′-dihexyloxacarbocyanine iodide, Thermo Fisher Scientific, Waltham, MA, USA) and propidium iodide (PI) were used. Cell density was adjusted to seed 2.5 × 10^5 cells/well in 6-well tissue culture plates. […] Subsequently, cells were scraped with the same culture mean and stained with both fluorescent dyes, incubating at room temperature for 30 min in darkness. For each sample, 10,000 events were analyzed through flow cytometry with excitation at 488 nm and detection of the emission with the green (530/15 nm) and the red (610/20 nm) filters. The results informed about the cells with depolarized mitochondrial membranes.

SW480 cells [5] = experiment: Cell cycle analysis (PI flow cytometry), SW480; type: cell-based, human; conditions: SW480, 48 h treatment
Protocol: Cell staining with the fluorescent propidium iodide (PI) was used to measure cell cycle distribution. The assays were carried out following the previous methodology described by Nicoletti et al. (1991). Briefly, 2.5 × 10^5 cells/well were seeded in 6-well tissue culture plates at 37 °C and 5% CO2. After 24 h of adherence, cells were treated during 48 h with hybrids 6e and 7, together with the vehicle control. At the end of each treatment, cells were scraped, and the centrifuged pellet was resuspended in 1.8 mL of 70% ethanol at 4 °C to fix the cells overnight. Then, after centrifugation, cells were washed twice in versene buffer to completely remove the alcohol, besides, they were further resuspended in 300 µL of PBS containing 0.25 mg/mL RNAse (Type I-A, Sigma-Aldrich, Darmstadt, Germany) and 0.1 mg/mL PI. After the incubation in the dark (for 30 min at room temperature), 10,000 events were analyzed with a FACS Canto II flow cytometer and the software BD FACS Diva 6.1.3. (BD Biosciences, San Jose, CA, USA). The PI fluorescence signal was analyzed with excitation at 488 nm (using a Sapphire laser), and detection at 610 nm. The cell cycle model was fixed with FlowJo 7.6.2 (Ashland, OR, USA), applying the Dean-Jett-Fox model.

CHO-K1 cells = experiment: SRB cell viability (cytotoxicity), CHO-K1; type: cell-based; conditions: Cricetulus griseus, CHO-K1 nonmalignant cells, read-out: IC50 ± SEM CHO
Protocol: as §1, §2

SW620 cells [6] = experiment: Mitochondrial membrane potential (DiOC6/PI flow cytometry), SW620; type: cell-based, human; conditions: SW620, treated at IC50 value
Protocol: as §3

SMILES: COc1ccc(C(=O)N/N=C/c2c(O)cc(O)cc2/C=C/c2ccc(O)cc2)c(OC)c1 [6e, N′-((E)-2,4-dihydroxy-6-((E)-4-hydroxystyryl)benzylidene)-2,4-dimethoxybenzohydrazide]
- Selectivity Index SI1 (SW480 cells [1]; 24 H): 0.85
- Selectivity Index SI2 (SW480 cells [1]; 24 H): 1.42
- Selectivity Index SI1 (SW480 cells [1]; 48 H): 2.89
- Selectivity Index SI2 (SW480 cells [1]; 48 H): 2.94
- IC50 (SW480 cells [1]; 24 H): 24.2 ± 3.29 µM
- IC50 (SW480 cells [1]; 48 H): 6.5 ± 1.9 µM
- selectivity (SI) (SW480 cells [1]): > 1
- Selectivity Index SI3 (SW620 cells [2]; 24 H): 0.28
- Selectivity Index SI4 (SW620 cells [2]; 24 H): 0.46
- Selectivity Index SI3 (SW620 cells [2]; 48 H): 0.67
- Selectivity Index SI4 (SW620 cells [2]; 48 H): 0.69
- IC50 (SW620 cells [2]; 24 H): 74.8 ± 12.9 µM
- IC50 (SW620 cells [2]; 48 H): 27.8 ± 3.9 µM
- IC50 (HaCaT cells; 24 H): 34.4 ± 3.96 µM
- IC50 (HaCaT cells; 48 H): 19.1 ± 0.8 µM
- viability at 3 µM (SW480 cells [3]; 48 h, 2 days after plating): 95 ± 3.11%
- viability at 6 µM (SW480 cells [3]; 48 h, 2 days after plating): 58.9 ± 0.89%
- viability at 12 µM (SW480 cells [3]; 48 h, 2 days after plating): 38.4 ± 2.67%
- viability at 24 µM (SW480 cells [3]; 48 h, 2 days after plating): 23.9 ± 0.82%
- viability at 48 µM (SW480 cells [3]; 48 h, 2 days after plating): 9.44 ± 1.17%
- viability at 3 µM (SW480 cells [3]; 96 h, 4 days after plating): 68.5 ± 1.31%
- viability at 6 µM (SW480 cells [3]; 96 h, 4 days after plating): 10.5 ± 0.87%
- viability at 12 µM (SW480 cells [3]; 96 h, 4 days after plating): 2.78 ± 0.42%
- viability at 24 µM (SW480 cells [3]; 96 h, 4 days after plating): 0.81 ± 0.38%
- viability at 48 µM (SW480 cells [3]; 96 h, 4 days after plating): 0.3 ± 0.33%
- viability at 3 µM (SW480 cells [3]; 144 h, 6 days after plating): 49 ± 2.08%
- viability at 6 µM (SW480 cells [3]; 144 h, 6 days after plating): 5.03 ± 0.19%
- viability at 12 µM (SW480 cells [3]; 144 h, 6 days after plating): 0.76 ± 0.36%
- viability at 24 µM (SW480 cells [3]; 144 h, 6 days after plating): 0%
- viability at 48 µM (SW480 cells [3]; 144 h, 6 days after plating): 0%
- viability at 3 µM (SW480 cells [3]; 192 h, 8 days after plating): 33.86 ± 0.3%
- viability at 6 µM (SW480 cells [3]; 192 h, 8 days after plating): 2.52 ± 0.1%
- viability at 12 µM (SW480 cells [3]; 192 h, 8 days after plating): 0.48 ± 0.11%
- viability at 24 µM (SW480 cells [3]; 192 h, 8 days after plating): 0%
- viability at 48 µM (SW480 cells [3]; 192 h, 8 days after plating): 0%
- Q1: PI-positive cells with membrane damage (SW480 cells [4]): 0.288%
- Q2: PI-positive cells with membrane damage (SW480 cells [4]): 0.831%
- Q3: DiOC6 high, live cells with high membrane polarization (SW480 cells [4]): 98.6%
- Q4: DiOC6 low, cells in latency that lose membrane polarization (SW480 cells [4]): 0.305%
- Cell cycle distribution G0/G1 (SW480 cells [5]): 58.95%
- Cell cycle distribution G2/M (SW480 cells [5]): 21.31%
- IC50 (CHO-K1 cells; 24 H): 20.6 ± 3.06 µM
- IC50 (CHO-K1 cells; 48 H): 18.8 ± 1.9 µM

SMILES: O=C(N/N=C/c1c(O)cc(O)cc1/C=C/c1ccc(O)cc1)c1ccncc1 [compound 7, N′-((E)-2,4-dihydroxy-6-((E)-4-hydroxystyryl)benzylidene)isonicotinohydrazide]
- Selectivity Index SI1 (SW480 cells [1]; 24 H): 0.80
- Selectivity Index SI2 (SW480 cells [1]; 24 H): 0.94
- Selectivity Index SI1 (SW480 cells [1]; 48 H): 2.14
- Selectivity Index SI2 (SW480 cells [1]; 48 H): 2.49
- IC50 (SW480 cells [1]; 24 H): 84.2 ± 10 µM
- IC50 (SW480 cells [1]; 48 H): 19 ± 1.4 µM
- selectivity (SI) (SW480 cells [1]): > 1
- Selectivity Index SI3 (SW620 cells [2]; 24 H): 0.55
- Selectivity Index SI4 (SW620 cells [2]; 24 H): 0.64
- Selectivity Index SI3 (SW620 cells [2]; 48 H): 1.06
- IC50 (SW620 cells [2]; 24 H): 122 ± 10.8 µM
- IC50 (SW620 cells [2]; 48 H): 38.4 ± 3.3 µM
- selectivity (SI) (SW620 cells [2]; SW620 versus the nonmalignant cell lines, 48 h after treatment): > 1
- IC50 (HaCaT cells; 24 H): 79 ± 6.73 µM
- IC50 (HaCaT cells; 48 H): 47.3 ± 2.5 µM
- Q1: PI-positive cells with membrane damage (SW620 cells [6]): 2.19%
- Q2: PI-positive cells with membrane damage (SW620 cells [6]): 1.54%
- Q3: DiOC6 high, live cells with high membrane polarization (SW620 cells [6]): 89.3%
- Q4: DiOC6 low, cells in latency that lose membrane polarization (SW620 cells [6]): 6.99%
- viability at 3 µM (SW480 cells [3]; 48 h, 2 days after plating): 100%
- viability at 6 µM (SW480 cells [3]; 48 h, 2 days after plating): 90.5 ± 1.38%
- viability at 12 µM (SW480 cells [3]; 48 h, 2 days after plating): 59.1 ± 0.27%
- viability at 24 µM (SW480 cells [3]; 48 h, 2 days after plating): 27.2 ± 0.5%
- viability at 48 µM (SW480 cells [3]; 48 h, 2 days after plating): 19.6 ± 2.58%
- viability at 3 µM (SW480 cells [3]; 96 h, 4 days after plating): 99.45 ± 0.55%
- viability at 6 µM (SW480 cells [3]; 96 h, 4 days after plating): 78.5 ± 1.56%
- viability at 12 µM (SW480 cells [3]; 96 h, 4 days after plating): 11.4 ± 0.35%
- viability at 24 µM (SW480 cells [3]; 96 h, 4 days after plating): 0%
- viability at 48 µM (SW480 cells [3]; 96 h, 4 days after plating): 0%
- viability at 3 µM (SW480 cells [3]; 144 h, 6 days after plating): 96.87 ± 0.14%
- viability at 6 µM (SW480 cells [3]; 144 h, 6 days after plating): 67.4 ± 1.82%
- viability at 12 µM (SW480 cells [3]; 144 h, 6 days after plating): 5.49 ± 0.05%
- viability at 24 µM (SW480 cells [3]; 144 h, 6 days after plating): 0%
- viability at 48 µM (SW480 cells [3]; 144 h, 6 days after plating): 0%
- viability at 3 µM (SW480 cells [3]; 192 h, 8 days after plating): 74.76 ± 0.02%
- viability at 6 µM (SW480 cells [3]; 192 h, 8 days after plating): 48.5 ± 1.11%
- viability at 12 µM (SW480 cells [3]; 192 h, 8 days after plating): 2.52 ± 0.22%
- viability at 24 µM (SW480 cells [3]; 192 h, 8 days after plating): 0%
- viability at 48 µM (SW480 cells [3]; 192 h, 8 days after plating): 0%
- effect on mitochondrial membrane potential (ΔΨm) (SW480 cells [4]; SW480, regarding the control, increase in DiOC6 low population): causing depolarization in the mitochondrial membrane
- Q1: PI-positive cells with membrane damage (SW480 cells [4]): 1.24%
- Q2: PI-positive cells with membrane damage (SW480 cells [4]): 0.052%
- Q3: DiOC6 high, live cells with high membrane polarization (SW480 cells [4]): 67.3%
- Q4: DiOC6 low, cells in latency that lose membrane polarization (SW480 cells [4]): 31.4%
- IC50 (CHO-K1 cells; 24 H): 67.2 ± 4.32 µM
- IC50 (CHO-K1 cells; 48 H): 40.5 ± 2.4 µM
